Data as given in patent US9974782B2, “Phosphodiesterase inhibitors and uses thereof” (THE TRUSTEES OF COLUMBIA UNIVERSITY IN THE CITY OF NEW YORK, priority 2008, dated 2018).
“Also recorded” adds a separate entry of the source. Read-outs that look alike come from different tables or passages of the source.

What was measured:
mice infused with Aβ42 = test: Contextual fear memory in mice infused with Aβ42; type: in vivo, mouse; conditions: 3 or 10 mg/Kg, p.o., immediately after training
Experimental: Our next goal was to check if YF012403 can attenuate synaptic and cognitive dysfunction in APP/PS1 mice. We induced LTP or contextual fear memory in the presence of oligomeric Aβ42, or vehicle [S18]. In the LTP experiments 200 nM Aβ42 or vehicle were perfused through the bath solution for 20 min prior to the application of the θ-burst. In the behavioral experiments 200 nM Aβ42 or vehicle were bilaterally infused 15 min prior to the foot shock into dorsal hippocampus of the animal that had been pre-implanted with a cannula the week before. Aβ reduced LTP and contextual fear memory (FIG. 49). However, YF012403 (50 nM, for 10 min prior to the θ-burst in the LTP experiments; 3 or 10 mg/Kg, p.o., immediately after training in the behavioral experiments) ameliorated the electrophysiological and behavioral deficits (FIG. 49).

[1] = system: isolated rabbit corpus cavernosum; conditions: read-out: EC50, relaxant effect; cited from earlier work
[2] = humans; cited from earlier work
[3] = system: APP processing (APP, sAPPα, sAPPβ, CT83, CT99); test: Western blot of APP full length and fragments in brain; type: in vivo, mouse; set-up: concentration or dose not given beside the values
Description: Aβ originates from APP through a proteolytic process catalyzed by secretases, producing different fragments with characteristic functions^A24. APP is first cleaved by α and β secretases that generate soluble extracellular fragments, named α-APPs and β-APPs, and three forms of carboxyterminal fragments (CTFs): C83 by α-secretase cleavage, C89 and C99 by β-secretase cleavage^A25, A26. CTFs are substrates of γ-secretase generating C-terminal peptides of 57-58 residues (APP intracellular domain, AID) and Aβ fragments from CTFβ^A27. To assess whether the decrease in Aβ levels was related to changes in APP processing [see FIG. 20], western blot analyses on mice brain cortex for full length APP and its fragments was performed.
APP levels were found unchanged also in 7-10 months old transgenic mice (FIGS. 7B-7C). They have been treated with daily injections of sildenafil for 3 weeks at age of 3 months. […] Moreover, a decrease in sAPPβ in transgenic mice treated with sildenafil was observed (FIGS. 7B, 7E) showing a down-regulation of BACE activity. […] Thus, without being bound by theory, the reduction in Aβ levels by sildenafil is due to an action of the inhibitor onto α- and β-secretase activity.
Mice brains were homogenized in buffer (20 mM tris base, 1 mM EDTA, 1 mM EGTA, 250 mM sucrose) containing protease inhibitors. Part of the homogenates was ultracentrifugated at 100,000 g for 1 h and the supernatants were used to analyze the sAPPα and the sAPPβ fragments. The protein concentration in each homogenate was quantified to analyze the equal amounts of protein from each sample. Samples were loaded into the wells of a 4-12% Bis-Tris precast gel, electrophoresed and transferred according to manufacturer's protocol. After Ponceau S staining, membranes were washed and incubated in 5% non-fat milk powder in PBS for 1 h at room temperature. Then, they were incubated overnight at 4° C. with the following primary antibodies, diluted in goat serum 5% in PBS: mouse 22C11 for APP full length detection (1:4000, Sigma); mouse sAPPα and Swedish sAPPβ (1:4000 and 1:1000, IBL), rabbit AbD for CTFs (1:250, Zymed), mouse Tubulin as control (1:20.000, Sigma). After overnight incubation, membranes were washed 3 times in PBS for 30 minutes and incubated with goat anti-mouse or goat-anti-rabbit antibody, diluted in 5% non-fat milk powder in PBS (1:4000 and 1:2000). After 30 minutes washing in PBS, radiographic detection was performed after exposure to ECL (Pierce).

[4] = in vivo, cited from earlier work
[5] = system: human Aβ40 and Aβ42 levels; test: Determination of Aβ levels (ELISA of cerebral cortex)
[6] = 3-month-old APP/PS1 treated with sildenafil
[7] = APP/PS1 at 7-10 months, sildenafil for 3 weeks at 3 months
[8] = 3-month-old APP/PS1, daily injections for 3 weeks
[9] = APP/PS1 at 7-10 months, injections for 3 weeks at 3 months

COc1ccc(CNc2c(CO)cnc3c(C4CC4)cc(C#N)cc23)cc1Cl [YF012403, 4-(3-chloro-4-methoxybenzylamino)-8-cyclopropyl-3-(hydroxymethyl)-quinoline-6-carbonitrile]
effect on contextual fear memory deficit in Aβ42-infused mice in words (mice infused with Aβ42): ameliorates the contextual fear memory deficit; also recorded: ameliorated

CCCc1nn(C)c2c(=O)[nH]c(-c3cc(S(=O)(=O)N4CCN(C)CC4)ccc3OCC)nc12 [sildenafil, 5-[2-ethoxy-5-(4-methyl-1-piperazinylsulphonyl)phenyl]-1-methyl-3-n-propyl-1,6-dihydro-7H-pyrazolo[4,3-d]pyrimidin-7-one]
EC50 [1]: 8.7 nM | in vivo half-life [2]: ~4 h | APP full length, % of control [3, 6]: 125.75±4.44% | CT83, % of control [3, 6]: 74.5±6.73% | CT99, % of control [3, 6]: 95.25±5.66% | sAPPα, % of control [3, 6]: 86.25±5.02% | sAPPβ, % of control [3, 6]: 43.25±3.90% | APP full length, % of control [3, 7]: 107.4±3.88% | CT83, % of control [3, 7]: 82.75±6.78% | CT99, % of control [3, 7]: 87.2±7.63% | sAPPα, % of control [3, 7]: 153.65±11.95% | sAPPβ, % of control [3, 7]: 25.6±2.83% | ability to cross the BBB in words [4]: reported to cross the blood brain barrier; also recorded: reported to cross the BBB | ability to cross the BBB in words ([4]; listed as Sildenafil): reported to cross the BBB | minimum time needed for a positive effect on Aβ40 levels ([5]; 3 mg/kg at 3 months of age, measured at 7-8 months): 3 weeks | minimum time needed for a positive effect on Aβ40 ([5]; 3 mg/kg, measured immediately after treatment): 2 weeks | minimum effective dose that decreases Aβ40 and Aβ42 levels ([5]; 3-month-old APP/PS1): 3 mg/kg | Aβ40 as % of vehicle-treated APP/PS1 mice [5, 8]: ~64% | Aβ40 level [5, 8]: 1.71±0.22 ng/mg cortex | Aβ42 as % of vehicle-treated APP/PS1 mice [5, 8]: ~80% | Aβ42 level [5, 8]: 3.56±0.23 ng/mg cortex | effect on Aβ levels in words ([5]; APP/PS1, 1.5 mg/kg for 3 weeks): did not decrease Aβ levels | Aβ40 as % of vehicle-treated APP/PS1 mice [5, 9]: ~65% | Aβ40 level [5, 9]: 49.59±7.93 ng/mg cortex | Aβ42 as % of vehicle-treated APP/PS1 mice [5, 9]: ~73% | Aβ42 level [5, 9]: 32.55±3.27 ng/mg cortex | minimum effective dose that decreases Aβ40 and Aβ42 levels ([5]; treated at 3 months, measured at 7-10 months): 3 mg/kg
